Assay results taken from patent publication US5436243A, “Aminoanthraquinone derivatives to combat multidrug resistance” (priority 1993, dated 1995).
Entries after “also recorded” stand apart in the source; their conditions may differ.

Experiments:
[1] = Partition in Bligh-Dyer extracts; format: physicochemical; conditions: Bligh-Dyer extracts of treated cells
Method: At these wavelengths, there was minimal absorbance by cellular components contained in the chloroform phase. […] METHOD: […] The monolayers were treated with 25 μM 1b or 1c and incubated at 37° C. After incubating the samples for the times indicated in FIG. 1, the monolayers were washed three times with DPBS and detached using 1 ml of Trypsin-EDTA.An aliquot of the cell suspension was counted using a Coulter Counter and a 0.8 ml aliquot was extracted in a Bligh-Dyer extraction (Bligh et at., Can. J. Biochem. 31:911-916 (1959)). The absorbance of the lower chloroform phase was measured at 648 nm and 600 nm using a spectrophotometer. The amount of 1b or 1c present in the extract was quantitated from a standard curve performed in cell extracts. The data is expressed as nmol anthraquinone/10^6 cells.

[2] = system: UOK-39 human renal cell line; assay: Vinblastine accumulation assay, UOK-39; format: cell-based; conditions: 10 μM, 10 nM [3H] vinblastine
Method: These cell lines are models of intrinsic resistance.
[^3 H] vinblastine was added to a final concentration of 10 nM and the cells were incubated for 2.5 hours. At this time, the cells were washed 3 times in ice cold PBS and lysed in buffer containing 0.1% Triton X-100.

MCF7 Adr 10 = assay: 72 hour MTT proliferation assay, reversal of drug resistance in MCF7 Adr 10; format: cell-based, human
Method: In 72 hour MTT proliferation assays using the following method, compounds 1b, 1c and 1d were assessed for inhibition of Vinca alkaloid and anthracycline drug resistance in MDR MCF7. Additionally, compounds 1b and 1c were assessed for potentiation of sensitivity to Vinca alkaloid and anthracycline drugs in the parental MCF7 WT cell line.
METHOD: 5000 cells per well were plated in 100 μl of IMDM containing 10% FCS and allowed to adhere overnight. The following day the cells were treated with N-substituted 1,4-diaminoanthraquinones and exposed to graded concentrations of antineoplastic agents. 50 μl of IMDM 10% FCS containing either vehicle or N-substituted 1,4-diaminoanthraquinones at 3 times the final tested concentration was added to cells at timed intervals. The plates were incubated for 2 hours at 37° C. to allow maximal cellular accumulation of N-substituted 1,4-diaminoanthraquinones. 40 μl aliquots of IMDM 10% FCS containing either vehicle or graded concentrations of antineoplastic drugs at 5 times the final concentration were added to treatment groups. Following this addition, 10 μl of IMDM 10% FCS containing either vehicle or N-substituted 1,4-diaminoanthraquinone at 5 times the final concentration was added to each group of wells. The cells were incubated for 72 hours after treatment. At this time the viable cells in each treatment group were estimated in a colorimetric assay by adding MTT and incubating the cells at 37° C. for 3-4 hours. The media in each well was aspirated and MTT formazan was solubilized in isopropyl alcohol acidified with 0.1 N HCl. The absorbance of the solubilized formazan was quantitated using a plate reader spectrophotometer. […] The concentrations of antineoplastic drugs which inhibited proliferation by 50% (IC50's) were estimated by calculating a percentage from the ratio: antineoplastic drug treated groups/control group absorbance and plotting the dose response curve on semilog paper. The IC50 was estimated from this curve. To assess the effects of inhibition of resistance by N-substituted 1,4-diaminoanthraquinones, the percentages were calculated relative to cell groups treated with resistance modifier alone and IC50's calculated as above. A reversal factor was calculated by dividing the IC50 to the antineoplastic drug alone (Control group) by the IC50 to antineoplastic drug in cells treated with resistance modifier.

O=C1c2ccccc2C(=O)c2c(NCCCN3CCOCC3)ccc(NCCCN3CCOCC3)c21 [Compound 1c, 1,4-bis-[[3'(4-morpholino)propyl]amino]anthraquinone]
blue color partitioning with cellular phospholipids in the lower chloroform phase [1]: > 95%
vinblastine accumulation relative to verapamil [2]: comparable or superior to verapamil activity
inhibition of Vinca alkaloid drug resistance (MCF7 Adr 10): inhibit Vinca alkaloid drug resistance at nanomolar concentrations
inhibition of drug resistance / MDR phenotype (MCF7 Adr 10; MCF7 Adr 10): most potent inhibitor of the MDR phenotype in the MCF7 Adr 10 cell line; also recorded: more potent MDR phenotype inhibitor than 1d
Reversal Factor (VCR) (MCF7 Adr 10; [1c] 0.1 μM): 2.3
Reversal Factor (VLB) (MCF7 Adr 10; [1c] 0.1 μM): 2.2
Reversal Factor (VCR) (MCF7 Adr 10; [1c] 0.25 μM): 5.0
Reversal Factor (VLB) (MCF7 Adr 10; [1c] 0.25 μM): 3.5
Reversal Factor (ADR) (MCF7 Adr 10; [1c] 0.5 μM): 2.0
Reversal Factor (DNR) (MCF7 Adr 10; [1c] 0.5 μM): 1.9
Reversal Factor (VCR) (MCF7 Adr 10; [1c] 0.5 μM): 10.4
Reversal Factor (VLB) (MCF7 Adr 10; [1c] 0.5 μM): 8.5
Reversal Factor (ADR) (MCF7 Adr 10; [1c] 1.0 μM): 3.3
Reversal Factor (DNR) (MCF7 Adr 10; [1c] 1.0 μM): 3.2
Reversal Factor (VCR) (MCF7 Adr 10; [1c] 1.0 μM): 24.8
Reversal Factor (VLB) (MCF7 Adr 10; [1c] 1.0 μM): 9.2
average cell growth in the presence of 1c alone, of the vehicle control (MCF7 Adr 10; test concentrations, n=14, 4320 min): greater than 86%
